For 9 compounds, DC50 and Dmax results are on record in patent US12091426B2, “Bifunctional degraders of hematopoietic progenitor kinase and therapeutic uses thereof” (Nurix Therapeutics, Inc., priority 2021, dated 2024).

SMILES strings stand for the structures.

The target of this assay is T1, HPK1 (Homo sapiens, UniProt Q92918).
T1 construct: A HiBiT tag was introduced by CRISPR on the N terminus of HPK1 in Jurkat cells; host or cells: Jurkat cells (ATCC TIB-152), monoclonal line with CRISPR knock-in of HiBiT at the endogenous HPK1 locus
Description: HPK1 Cellular HiBit Degradation Assay. The class given is cell-based. The settings on record: HiBiT HPK1 Jurkat cells, 24 hrs; for DC50: concentration at which 50% of HPK1 was remaining, read-out: DC50 Category; for Dmax: Jurkat, maximum degradation vs DMSO vehicle control, read-out: Dmax Category. The essentials: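 Degraders are dosed in an 11-point series (10 uM to 0.1 nM final) onto Jurkat cells carrying an N-terminal HiBiT tag on endogenous HPK1. After 24 hrs at 37° C, lysis-based HiBiT luminescence quantifies remaining HPK1 relative to vehicle, and curve fitting gives DC50 and Dmax.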

T1 sequence (Q92918 whole entry): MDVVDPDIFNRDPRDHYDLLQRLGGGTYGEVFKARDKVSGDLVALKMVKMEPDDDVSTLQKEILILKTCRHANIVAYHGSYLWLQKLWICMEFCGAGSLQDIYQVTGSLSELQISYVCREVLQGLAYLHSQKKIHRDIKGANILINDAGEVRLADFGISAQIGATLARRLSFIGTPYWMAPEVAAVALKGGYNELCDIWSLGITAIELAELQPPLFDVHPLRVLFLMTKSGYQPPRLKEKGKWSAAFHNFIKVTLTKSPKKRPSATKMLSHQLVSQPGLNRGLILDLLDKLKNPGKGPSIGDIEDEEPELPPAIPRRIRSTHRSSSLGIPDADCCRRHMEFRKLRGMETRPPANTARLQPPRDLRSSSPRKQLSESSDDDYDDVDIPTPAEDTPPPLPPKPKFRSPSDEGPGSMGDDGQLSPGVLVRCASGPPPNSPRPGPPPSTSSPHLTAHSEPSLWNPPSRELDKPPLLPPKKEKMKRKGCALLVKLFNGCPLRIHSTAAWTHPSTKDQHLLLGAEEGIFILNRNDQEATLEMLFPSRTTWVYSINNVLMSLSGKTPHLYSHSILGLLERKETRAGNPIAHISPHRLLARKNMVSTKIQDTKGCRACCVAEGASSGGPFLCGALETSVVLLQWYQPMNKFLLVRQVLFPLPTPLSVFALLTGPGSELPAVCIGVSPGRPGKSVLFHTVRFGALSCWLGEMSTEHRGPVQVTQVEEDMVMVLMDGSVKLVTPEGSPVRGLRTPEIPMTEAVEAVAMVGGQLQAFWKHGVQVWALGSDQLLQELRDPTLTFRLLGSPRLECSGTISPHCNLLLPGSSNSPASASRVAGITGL

Consider `CC(C)n1cnc2cc(-c3ccc4c(c3)N([C@H]3C[C@@H](N5CC6CCC(C6)C5)C3)C(=O)C43CCN(C(=O)C4(C)CCN(C(=O)C5CCN(c6ccc(C7CCC(=O)NC7=O)cn6)CC5)CC4)CC3)nc(NC3CC3)c21` (mixture of isomers) [Example 217, (3RS)-3-(6-{4-[4-({6-[4-(cyclopropylamino)-3-(propan-2-yl)-3H-imidazo[4,5-c]pyridin-6-yl]-2-oxo-1-[(1S,3S)-3-{3-Azabicyclo[3.2.1]octan-3-yl}cyclobutyl]-1,2-dihydrospiro[indole-3,4′-piperidin]-1′-yl}carbonyl)-4-methylpiperidine-1-carbonyl]piperidin-1-yl}pyridin-3-yl)piperidine-2,6-dione], for which the DC50 – broadly, the midpoint of the concentration-degradation curve – is less than 100 nM and the maximal degradation (Dmax) (in general, the greatest extent of degradation seen) was more than 85%.
Taken in the same sequence, the figures for `CC(C)n1cnc2cc(-c3ccc4c(c3)N([C@H]3C[C@@H](N5C6COCC5C6)C3)C(=O)C43CCN(C(=O)C4(C)CCN(C(=O)C5CCN(c6ccc(C7CCC(=O)NC7=O)cn6)CC5)CC4)CC3)nc(NC3CC3)c21` (mixture of isomers) [Example 218, (3RS)-3-(6-{4-[4-({6-[4-(cyclopropylamino)-3-(propan-2-yl)-3H-imidazo[4,5-c]pyridin-6-yl]-2-oxo-1-[(1S,3S)-3-{3-oxa-6-azabicyclo[3.1.1]heptan-6-yl}cyclobutyl]-1,2-dihydrospiro[indole-3,4′-piperidin]-1′-yl}carbonyl)-4-methylpiperidine-1-carbonyl]piperidin-1-yl}pyridin-3-yl)piperidine-2,6-dione] were 100 to 500 nM and 50 to 70%.
Regarding `CC(C)n1cnc2cc(-c3ccc4c(c3)N([C@H]3C[C@@H](N5CCC[C@@H](F)C5)C3)C(=O)C43CCN(C(=O)C4(C)CCN(C(=O)C5CCN(c6ccc(C7CCC(=O)NC7=O)cn6)CC5)CC4)CC3)nc(NC3CC3)c21` (mixture of isomers) [Example 219, (3RS)-3-(6-{4-[4-({6-[4-(cyclopropylamino)-3-(propan-2-yl)-3H-imidazo[4,5-c]pyridin-6-yl]-2-oxo-1-[(1S,3S)-3-[(3R)-3-fluoropiperidin-1-yl]cyclobutyl]-1,2-dihydrospiro[indole-3,4′-piperidin]-1′-yl}carbonyl)-4-methylpiperidine-1-carbonyl]piperidin-1-yl}pyridin-3-yl)piperidine-2,6-dione], the half-maximal degradation concentration (DC50) was in the range of 100 to 500 nM and the Dmax lay in the range of 70 to 85%.
On to `CC(C)n1cnc2cc(-c3ccc4c(c3)N([C@H]3C[C@@H](N5CCCCC5)C3)C(=O)C43CCN(C(=O)C4(C)CCN(C(=O)C5CCN(c6ncc(C7CCC(=O)NC7=O)cn6)CC5)CC4)CC3)nc(NC3CC3)c21` (mixture of isomers) [Example 220, (3RS)-3-(2-{4-[4-({6-[4-(cyclopropylamino)-3-(propan-2-yl)-3H-imidazo[4,5-c]pyridin-6-yl]-2-oxo-1-[(1S,3S)-3-(piperidin-1-yl)cyclobutyl]-1,2-dihydrospiro[indole-3,4′-piperidin]-1′-yl}carbonyl)-4-methylpiperidine-1-carbonyl]piperidin-1-yl}pyrimidin-5-yl)piperidine-2,6-dione], for which the DC50 is less than 100 nM and the greatest degradation seen (Dmax) was in the range of 70 to 85%.
The like results for `CC(C)n1cnc2cc(-c3ccc4c(c3)N([C@H]3C[C@@H](N5CCCCC5)C3)C(=O)C43CCN(C(=O)C4(C)CCN(C(=O)CC5CCN(c6ccc(C7CCC(=O)NC7=O)cn6)CC5)CC4)CC3)nc(NC3CC3)c21` (mixture of isomers) [Example 221, (3RS)-3-[6-(4-{2-[4-({6-[4-(cyclopropylamino)-3-(propan-2-yl)-3H-imidazo[4,5-c]pyridin-6-yl]-2-oxo-1-[(1S,3S)-3-(piperidin-1-yl)cyclobutyl]-1,2-dihydrospiro[indole-3,4′-piperidin]-1′-yl}carbonyl)-4-methylpiperidin-1-yl]-2-oxoethyl}piperidin-1-yl)pyridin-3-yl]piperidine-2,6-dione] were, in that order, less than 100 nM and 70 to 85%.
The like results for `CC(C)n1cnc2cc(-c3ccc4c(c3)N([C@H]3C[C@@H](N5C6CCC5COC6)C3)C(=O)C43CCN(C(=O)C4(C)CCN(C(=O)CC5CCN(c6ccc(C7CCC(=O)NC7=O)cn6)CC5)CC4)CC3)nc(NC3CC3)c21` (mixture of isomers) [Example 222, (3RS)-3-[6-(4-{2-[4-({6-[4-(cyclopropylamino)-3-(propan-2-yl)-3H-imidazo[4,5-c]pyridin-6-yl]-2-oxo-1-[(1S,3S)-3-{3-oxa-8-Azabicyclo[3.2.1]octan-8-yl}cyclobutyl]-1,2-dihydrospiro[indole-3,4′-piperidin]-1′-yl}carbonyl)-4-methylpiperidin-1-yl]-2-oxoethyl}piperidin-1-yl)pyridin-3-yl]piperidine-2,6-dione] were, in that order, 100 to 500 nM and 50 to 70%.
Taken in the same sequence, the figures for `CC(C)n1cnc2cc(-c3ccc4c(c3)N([C@H]3C[C@@H](N5CC6CCC(C6)C5)C3)C(=O)C43CCN(C(=O)C4(C)CCN(C(=O)CC5CCN(c6ccc(C7CCC(=O)NC7=O)cn6)CC5)CC4)CC3)nc(NC3CC3)c21` (mixture of isomers) [Example 223, (3RS)-3-[6-(4-{2-[4-({6-[4-(cyclopropylamino)-3-(propan-2-yl)-3H-imidazo[4,5-c]pyridin-6-yl]-2-oxo-1-[(1S,3S)-3-{3-azabicyclo[3.2.1]octan-3-yl}cyclobutyl]-1,2-dihydrospiro[indole-3,4′-piperidin]-1′-yl}carbonyl)-4-methylpiperidin-1-yl]-2-oxoethyl}piperidin-1-yl)pyridin-3-yl]piperidine-2,6-dione] were less than 100 nM and 70 to 85%.
As to `CC(C)n1cnc2cc(-c3ccc4c(c3)N([C@H]3C[C@@H](N5CCCCC5)C3)C(=O)C43CCN(C(=O)C4(C)CCN(C(=O)CN5CCC(c6ccc(C7CCC(=O)NC7=O)cn6)CC5)CC4)CC3)nc(NC3CC3)c21` (mixture of isomers) [Example 224, (3RS)-3-[6-(1-{2-[4-({6-[4-(cyclopropylamino)-3-(propan-2-yl)-3H-imidazo[4,5-c]pyridin-6-yl]-2-oxo-1-[(1S,3S)-3-(piperidin-1-yl)cyclobutyl]-1,2-dihydrospiro[indole-3,4′-piperidin]-1′-yl}carbonyl)-4-methylpiperidin-1-yl]-2-oxoethyl}piperidin-4-yl)pyridin-3-yl]piperidine-2,6-dione], the DC50 is 100 to 500 nM and the maximal degradation (Dmax) fell in the range of 70 to 85%.
As for `CC(C)n1cnc2cc(-c3ccc4c(c3)N([C@H]3C[C@@H](N5CCCCC5)C3)C(=O)C43CCN(C(=O)C4(C)CCN(CC5CCN(c6ccc(C7CCC(=O)NC7=O)cn6)CC5)CC4)CC3)nc(NC3CC3)c21` (mixture of isomers) [Example 225, (3RS)-3-[6-(4-{[4-({6-[4-(cyclopropylamino)-3-(propan-2-yl)-3H-imidazo[4,5-c]pyridin-6-yl]-2-oxo-1-[(1S,3S)-3-(piperidin-1-yl)cyclobutyl]-1,2-dihydrospiro[indole-3,4′-piperidin]-1′-yl}carbonyl)-4-methylpiperidin-1-yl]methyl}piperidin-1-yl)pyridin-3-yl]piperidine-2,6-dione], the DC50 was 500 to 1000 nM and the maximal degradation (Dmax) was 50 to 70%.
